Literature values, collected in patent US10154967B2, “2,2′,6,6′-tetraisopropyl-4,4′-biphenol lipid microsphere preparations and preparation methods therefor” (XI'AN LIBANG PHARMACEUTICAL CO., LTD, priority 2012, dated 2018).

Columns and labels:
[1] = system: GABA receptors
[2] = compared with propofol
[3] = system: excitotoxic effect induced by kainate (kainic acid)
[4] = system: NMDA receptors; settings: regulating the Ca2+ influx in Ca2+ channels
[5] = system: GABA receptors; remark: listed apart in the source
[6] = system: patients

CC(C)c1cc(-c2cc(C(C)C)c(O)c(C(C)C)c2)cc(C(C)C)c1O [biphenol]
affinity towards GABA receptors [1]: strong affinity
antioxidant strength [2]: significantly stronger antioxidant than propofol
protection against the excitotoxic effect induced by kainate [3]: protection
action at NMDA receptors [4]: antagonist
action at GABA receptors [5]: agonist
loss of consciousness [6]: does not cause the patients to lose consciousness
lipid solubility: highly lipid soluble
solubility in water: difficult to dissolve in water
